# Entries after “also recorded” stand apart in the source; their conditions may differ.
# Columns and labels:
# splenocytes from WT mice = assay: Iron stimulation of splenocytes, IL-6 secretion by ELISA; assay type: cell-based; settings: 1 μg/mL hepcidin for 4 hours, vs untreated splenocytes; FIG. 10c
# Description: Splenocytes were harvested from 10-week-old B6 male mice. After excising the spleen, red blood cells were lysed and the remaining splenocytes were seeded at 1×10^6 cells/mL in 24-well tissue culture plates and cultured under 5% CO2 at 37° C. for 24 hours. The culture medium consisted of RPMI 1640 medium supplemented with 10% fetal calf serum (FCS), 100 U/mL penicillin, 100 μg/mL streptomycin, 1% non-essential amino acids (Gibco/Life Technologies, Foster, Calif., USA), 2 mM L-glutamine (Sigma), and 50/μM 2-mercaptoethanol. After resting for 24 hours, the cells were treated with 10 μM […] (FAC), 1 μg/mL hepcidin or saline for 4 hours. The cell culture supernatants were harvested and quantified for the levels of IL-6 by ELISA (eBioscience).
# C57BL/6 mice = assay: Renal IRI in WT mice: kidney apoptosis (Caspase-3, Bcl-2 real time PCR, TUNEL); assay type: in vivo; settings: for TUNEL reactivity in kidney: 26 minutes ischemia, 24 hours reperfusion, FIG. 3e-f; for kidney Caspase-3 expression: hepcidin before IRI, vs IRI p<0.005, vs sham p<0.03, FIG. 3a; for kidney Bcl2 expression: hepcidin-IRI vs untreated IRI, p<0.0008, FIG. 3b
# Description: (§1) All experiments were performed in accordance with the National Institutes of Health and Institutional Animal Care and Use Guidelines. The Animal Care and Use Committee of the University of Virginia approved all procedures and protocols. C57BL/6 mice from the Jackson Laboratory and hepcidin knockout mice (HAMP−/−), a kind gift from Dr Cindy Roy (John Hopkins University) were used in this study. All experiments were performed on 8-10 weeks old male mice. Kidney ischemia-reperfusion surgery was performed as previously reported (44). The core temperature of the mice was maintained between 34° C. and 36° C. using a heating pad. After anesthetizing the mice (ketamine, 12 mg/ml; atropine, 0.48 mg/ml; xylazine, 24 mg/ml; […] mixture administered per 20 g body weight), bilateral flank incisions were made, both renal pedicles were exposed, and cross-clamped for 26 minutes (severe I/R injury) or 24 minutes (mild I/R injury). After the determined ischemia, clamps were removed, and kidneys were allowed to reperfuse for 24 hours. Ambient postoperative air temperature was maintained between 30° C. and 32° C. until mice had fully recovered. Sham-operated animals underwent bilateral flank incisions without clamping of renal pedicles. Twenty-four hours later, mice were euthanized, and tissues were harvested.
# Animals were divided into three groups, injected intraperitoneally with water and underwent IRI (IRI), injected intraperitoneally with 50-100 μg hepcidin at different time points prior to IRI (Hepcidin-IRI) or were sham operated (Sham). The experimental design is depicted in FIG. 2a.
# Apoptotic cells in the kidney were detected by TUNEL assay following the manufacturer's protocol (Roche Diagnostics, Mannheim, Germany). Briefly, PLP-fixed kidney sections were immersed in 3% hydrogen peroxide-methanol (10 minutes) and permeabilized with cold 0.1% Triton-X100 and 0.1% […] (2 minutes). DNA fragments in apoptotic cells were then labeled and identified by terminal transferase dUTP conjugated to fluorescein (Roche Diagnostics) for 60 minutes at room temperature in dark. The apoptotic cells were imaged using a Zeiss Axiovert 200 microscope with Apo Tome (Zeiss).
# For RNA isolation, frozen tissues were re-suspended in RLT buffer (Qiagen Inc, Valencia, Calif.) and homogenized using TissueLyser system (Qiagen Inc, Valencia, Calif.). Total RNA from tissue homogenate was purified using RNAeasy mini kit (Qiagen Inc, Valencia, Calif.) following manufacturers instructions. 1 μg of RNA was used to synthesize cDNA using the iScript cDNA synthesis kit (Bio-Rad). The cDNA template was mixed with iTAQ SYBR green universal super mix (Bio-Rad) and quantitative PCR was carried out on CFX Connect system (Bio-Rad). Predesigned primers for Caspase-3 and Bcl-2 were purchased from Bio-rad. Glyceraldehyde-3-phosphate dehydrogenase (GAPDH) was amplified in parallel and used as the reference gene in quantification. Data is expressed as the relative gene expression and was calculated using the 2 (−ρρC(T)) method.
# [1] = system: folic acid induced acute kidney injury; assay: Folic acid induced acute kidney injury (data not shown); assay type: in vivo
# [2] = system: iron loaded bone marrow macrophages; settings: hepcidin pretreatment; cited from earlier work
# [3] = system: hepcidin knockout mice (HAMP−/−); assay: Renal IRI in HAMP-/- mice: splenic ferroportin and splenic H-Ferritin; assay type: in vivo; settings: for splenic H-Ferritin: HAMP-/- Hepcidin-IRI vs HAMP-/- IRI and vs Sham, p<0.005, FIG. 9c
# Description: as §1
# Snap frozen tissue sections were homogenized in Tris-Triton tissue lysis buffer containing complete protease inhibitor cocktail using a Dounce Homogenizer. Membrane fractions were isolated from the whole kidney lysate using membrane isolation kit (Thermo Pierce) to determine ferroportin expression. H-Ferritin was measured in the whole kidney and spleen lysates. […] The primary antibodies were detected with Donkey anti-goat Alexa 800 and goat anti-rabbit Alexa 800 antibodies (LiCor Bioscience). Mouse monoclonal GAPDH and β-Actin (Abcam) were used as the loading controls and detected using Donkey anti Mouse Alexa 680 antibody (LiCor Bioscience). Quantitation of data was performed using densitometry software (Licor Bioscience).
substance,measurement,setting,value
Mouse hepcidin 25 (DTNFPICIFCCKCCNNSQCGICCKT; listed as Mus musculus),IL-6 secretion into supernatants,splenocytes from WT mice,no significant difference in IL-6 levels
same,TUNEL reactivity in kidney,C57BL/6 mice,reduced by Hepcidin pretreatment
same,TUNEL reactivity in kidney,C57BL/6 mice; listed as hepcidin,remarkably fewer TUNEL-positive tubules
same,kidney Caspase-3 expression,C57BL/6 mice,significantly reduced IRI-induced Caspase-3 expression; also recorded: lower transcriptional activation of pro apoptotic Caspase3
same,kidney Caspase-3 expression,C57BL/6 mice; listed as hepcidin,even lower than the sham mice
same,kidney Bcl2 expression,C57BL/6 mice,better preservation of anti apoptotic Bcl2
same,kidney Bcl2 expression,C57BL/6 mice; listed as hepcidin,significantly higher expression of Bcl2 compared to untreated IRI mice
same,protection against folic acid induced acute kidney injury,[1],protective against folic acid induced acute kidney injury
same,LPS-induced IL-6 and TNF alpha production,[2],reduced LPS-induced IL-6 and TNF alpha production
same,splenic H-Ferritin,[3],increased splenic H-Ferritin levels
same,splenic H-Ferritin,[3]; listed as hepcidin,significantly higher H-Ferritin compared to both untreated IRI mice and sham controls
same,splenic ferroportin expression,"[3]; hepcidin reconstitution in HAMP-/- mice, renal IRI",lower ferroportin expression than sham-operated mice

# — US11020457B2, “Compositions and methods for protecting the kidney from ischemia reperfusion injury” (University of Virginia Patent Foundation, priority 2013, dated 2021)
